# Columns and labels:
# [1] = tested on: mite antigen-induced dermatitis in NC/NgaTndCrlj mice; assay: Model for mite antigen-induced atopic dermatitis (dermatitis score); format: in vivo, mouse; design: key: sum of 5 findings, each 0 = none, 1 mild, 2 moderate, 3 severe
# Procedure: A 4 w/v % SDS solution (0.15 mL/mouse) was first applied to the dorsal region and auricle region of 8-week old male NC/NgaTndCrlj mice (Charles River Laboratories Japan, Inc.) under isoflurane inhalation anesthesia. About 3 hours after the application of the 4 w/v % SDS solution (0.15 mL/mouse), a 1 mL-polypropylene disposable syringe (Terumo Corporation) was filled with Bio stir AD (Biostir Inc.) as a mite antigen ointment which was applied to the dorsal region and auricle region (0.1 mL/mouse). Every 2 or 3 days, the 4 w/v % SDS solution (0.15 mL/mouse) and Biostir AD were applied to a total of 8 times including the initial application by the same method to induce dermatitis. After inducing the dermatitis, the conditions of the skin at the application sites (assessments other than itching behavior) were observed and the dermatitis findings 1) to 5) described below were scored based on the evaluation criteria for the clinical symptoms of human atopic dermatitis. Note that the scoring of the dermatitis findings 1) to 5) has 0 for no symptom, 1 for mild, 2 for moderate and 3 for severe. The dermatitis score of each individual is the total of the dermatitis findings 1) to 5). Grouping (15 mice per group) was carried out randomly so that each group had substantially the same (no statistically significant difference) average dermatitis score (total) and average body weight. For 14 days from the day on which the grouping was carried out, an administration solution containing the test compound (10 mL/kg) was orally administered to the mouse once a day (14 times in total). The administration solution was a 0.5% carboxymethyl cellulose solution containing 10 mmol/L sodium hydroxide and made up into three types of solution having test compound concentrations of 0.3, 1 or 3 mg/mL.
# [2] = tested on: OXA-induced enteritis in BALB/c male mice; assay: Model mouse for enteritis (OXA-induced, bowel length); format: in vivo; details: po, 48 h, 0.1 mg/mL solution 10 mL/kg orally twice (1 hour before and day after OXA induction), length of colon and rectum two days after induction, read-out: Inhibitory activity on bowel shortening (%)
# Procedure: Generally, the bowel length is known to be shorter during enteritis (Maxwell, J. R. et al. Curr. Protoc. Pharmacol. Chapter 5: Unit 5.58, 2009). The bowel length in an enteritis model was measured to evaluate the effect of the test compound.
# The test compound was added to a 0.5% carboxymethyl cellulose solution so as to have a final concentration of 0.1 mg/mL, thereby preparing an administration solution containing the test compound. Hapten used was 4-ethoxymethylene-2-phenyloxazol-5-one (OXA, SIGMA-ALDRICH).
# One hundred (100) μL of a solution of OXA diluted to 0.3% with ethanol was applied to the shaved abdominal region of BALB/c male mice (Charles River), 6-10 weeks of age, to create the sensitization. Five days after the sensitization, OXA was intrarectally administered to induce an enteritis reaction. More specifically, a syringe equipped with a sonde for oral administration was inserted into the anus of the mouse anesthetized by the inhalation of isoflurane at a concentration of 4-5% and 50 μL of the OXA solution adjusted to 1% with a solvent of 50% ethanol/50% distilled water was administered into the rectum.
# One hour before and on the day following the induction of enteritis, the administration solution containing the test compound (10 mL/kg) was orally administered twice in total to the mice. Two days after the induction of enteritis, the mice were euthanized by cervical dislocation and subsequently the cecum to the anus was collected to measure the combined length of the colon and the rectum using a ruler, thereby evaluating the action of the test compound.
# Note that Reference Example 1 in Table 6 is Compound (XIX).
Structure (SMILES),"Dermatitis score (total of findings 1 to 5) ([1]; 3 mg/kg orally once a day, 4 days after starting administration)","Dermatitis score (total of findings 1 to 5) ([1]; 3 mg/kg orally once a day, 7 days after starting administration)","Dermatitis score (total of findings 1 to 5) ([1]; 3 mg/kg orally once a day, 11 days after starting administration)","Dermatitis score (total of findings 1 to 5) ([1]; 3 mg/kg orally once a day, 14 days after starting administration)","Dermatitis score (total of findings 1 to 5) ([1]; 3 mg/kg orally once a day, day 0 (day of grouping))","Dermatitis score (total of findings 1 to 5) ([1]; 10 mg/kg orally once a day, 4 days after starting administration)","Dermatitis score (total of findings 1 to 5) ([1]; 10 mg/kg orally once a day, 7 days after starting administration)","Dermatitis score (total of findings 1 to 5) ([1]; 10 mg/kg orally once a day, 11 days after starting administration)","Dermatitis score (total of findings 1 to 5) ([1]; 10 mg/kg orally once a day, 14 days after starting administration)","Dermatitis score (total of findings 1 to 5) ([1]; 10 mg/kg orally once a day, day 0 (day of grouping))","Dermatitis score (total of findings 1 to 5) ([1]; 30 mg/kg orally once a day, 4 days after starting administration)","Dermatitis score (total of findings 1 to 5) ([1]; 30 mg/kg orally once a day, 7 days after starting administration)","Dermatitis score (total of findings 1 to 5) ([1]; 30 mg/kg orally once a day, 11 days after starting administration)","Dermatitis score (total of findings 1 to 5) ([1]; 30 mg/kg orally once a day, 14 days after starting administration)","Dermatitis score (total of findings 1 to 5) ([1]; 30 mg/kg orally once a day, day 0 (day of grouping))","inhibition in vivo at 100 µg/mL, 1 mg/kg [2]"
"CO[C@H]1CN(C(=O)c2cc3nc(-c4cc(F)c(Cl)c(F)c4)cc(N(C)c4c(C)cccc4F)n3n2)CC[C@H]1CC(=O)O [Example 10, 2-((3R,4S)-1-(5-(4-chloro-3,5-difluorophenyl)-7-((2-fluoro-6-methylphenyl)(methyl)amino)pyrazolo[1,5-a]pyrimidine-2-carbonyl)-3-methoxypiperidin-4-yl)acetic acid]",9.1 ± 0.5,8.6 ± 0.7,6.7 ± 0.7,5.4 ± 0.7,9.7 ± 0.5,8.6 ± 0.9,7.7 ± 0.8,7.1 ± 1.0,5.9 ± 0.9,9.3 ± 0.6,8.7 ± 0.7,7.8 ± 0.8,6.5 ± 0.8,5.0 ± 0.8,9.3 ± 0.6,
"C[C@@H](c1ccccc1)N(C)c1cc(-c2cc(F)c(F)c(F)c2)nc2cc(C(=O)N3CCC(CC(=O)O)CC3)nn12 [Reference Example 1, (S)-2-(1-(7-(methyl(1-phenylethyl)amino)-5-(3,4,5-trifluorophenyl)pyrazolo[1,5-a]pyrimidine-2-carbonyl)piperidin-4-yl)acetic acid, reference compound]",,,,,,,,,,,,,,,,37.3%
